Test [1] deals with Tebowned (RNA, riboswitch) GGACGAUUGAGGAUAUUUAGACAUAGAGAAGGCAAUGGAGAGAGAGCUUUUUAAAGAAACAACAACAACAAC
The test is described as follows: chemical mapping. Conditions: mapping pattern changes on FMN.

For test [2], the system named is V. vulnificus add adenine riboswitch (with expression platform segment) (RNA, riboswitch) GGGAACCGAGUAGGUUCGCUUCAUAUAAUCCUAAUGAUAUGGUUUGGGAGUUUCUACCAAGAGCCUUAAACUCUUGAUUAUGAAGUCUGUCGCUUUAUCCGAAAUUUUAUAAAGAGAAGACUCAUGAAUGGGAUCCGAGUAGGAUCCUGAAAAAAACAACAACAAC
Briefly: 1M7 SHAPE mutate-and-map chemical mapping. Conditions: 50 mM KCl, 25 mM K3PO4, 10 mM MgCl2; pH 6.5; room temperature; 5 mM adenine; protections in aptamer.

Structures are written as SMILES.

Consider `Cc1cc2nc3c(=O)[nH]c(=O)nc-3n(C[C@H](O)[C@H](O)[C@H](O)COP(=O)(O)O)c2cc1C`, for which the binding result in test [1] is recorded as “yes”.

In the case of `Nc1ncnc2[nH]cnc12`, the binding entry in test [2] is listed as “yes”.
